Laboratory results published in the supplement of paper PMC11061612.

How the values were obtained:
[1] = test system: NEC8 (Other Solid Carcinomas); assay: combination Emax (second highest fraction inhibited in the dose matrix, 72 h); higher = more inhibition; extreme values may be limits of the assay
Outline: (§1)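 After 24 hours at 37°C and 5% CO2 in 1536-well plates, cells in DMEM/F12 or RPMI plus 10% FBS received two-drug dose matrices for 72 hours. Viability came from CellTiter-Glo 2.0 luminescence and was scaled as inhibition, anchored at 0 by vehicle wells and at 1 by blank wells. Combination Emax is taken as the second-highest inhibition in the matrix, and Bliss excess as the observed combination effect less EA + EB − EA·EB, with EA and EB the single-agent effects.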

[2] = test system: VA-ES-BJ (Other Solid Carcinomas); assay: Bliss excess, mean over the matrix (fraction); higher = more synergy
Outline: as §1

TGW (Neuroblastoma) = assay: as above
Outline: as §1

[3] = test system: Caov-4 (Ovarian Carcinoma); assay: as above
Outline: as §1

D-263MG (Glioblastoma) = assay: as above
Outline: as §1

NB69 (Neuroblastoma) = assay: as above
Outline: as §1

[4] = test system: KYSE-450 (Esophageal Squamous Cell Carcinoma); assay: as above
Outline: as §1

[5] = test system: NCI-H1915 (Non-Small Cell Lung Carcinoma); assay: as above
Outline: as §1

[6] = test system: NCI-H727 (Other Solid Carcinomas); assay: as above
Outline: as §1

[7] = test system: MIA-PaCa-2 (Pancreatic Carcinoma); assay: as above
Outline: as §1

[8] = test system: EFM-19 (Breast Carcinoma); assay: as above
Outline: as §1

[9] = test system: HOP-62 (Lung Adenocarcinoma); assay: as above
Outline: as §1

[10] = test system: Ca9-22 (Head and Neck Carcinoma); assay: as above
Outline: as §1

[11] = test system: MLMA (Other Blood Carcinomas); assay: as above
Outline: as §1

[12] = test system: Hs-766T (Pancreatic Carcinoma); assay: as above
Outline: as §1

TK10 (Kidney Carcinoma) = assay: as above
Outline: as §1

[13] = test system: OSC-20 (Oral Cavity Carcinoma); assay: as above
Outline: as §1

[14] = test system: EoL-1-cell (Acute Myeloid Leukemia); assay: as above
Outline: as §1

[15] = test system: TE-1 (Esophageal Squamous Cell Carcinoma); assay: as above
Outline: as §1

EW-24 (Ewing's Sarcoma) = assay: as above
Outline: as §1
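Throughout, for Bliss excess, mean over the matrix: after 72 h of two-drug dosing.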

Row | SMILES | combination Emax [1] | Bliss excess [2] | Bliss excess (TGW (Neuroblastoma)) | Bliss excess [3] | Bliss excess (D-263MG (Glioblastoma)) | Bliss excess (NB69 (Neuroblastoma)) | Bliss excess [4] | Bliss excess [5] | Bliss excess [6] | Bliss excess [7] | Bliss excess [8] | Bliss excess [9] | Bliss excess [10] | Bliss excess [11] | Bliss excess [12] | Bliss excess (TK10 (Kidney Carcinoma)) | Bliss excess [13] | Bliss excess [14] | Bliss excess [15] | Bliss excess (EW-24 (Ewing's Sarcoma))
1 | CC1(C)CCC(CN2CCN(c3ccc(C(=O)NS(=O)(=O)c4ccc(NCC5CCOCC5)c([N+](=O)[O-])c4)c(Oc4cnc5[nH]ccc5c4)c3)CC2)=C(c2ccc(Cl)cc2)C1 [Venetoclax] + C1CN(CCC1(C(=O)N[C@@H](CCO)C2=CC=C(C=C2)Cl)N)C3=NC=NC4=C3C=CN4 [Capivasertib] (first compound max 1 µM, 7x7, partner max 3 µM) | 0.174 | -0.0357 | -0.0211 | -0.0458 | -0.0151 | 0.0242 | -0.0296 | -0.0362 | -0.0539 | -0.0384 | -0.0925 | -0.0565 | -0.0171 | -0.0425 | -0.0635 | -0.0574 | -0.0354 | 0.0239 | -0.0236 | -0.0113
2 | CC1(C)CCC(CN2CCN(c3ccc(C(=O)NS(=O)(=O)c4ccc(NCC5CCOCC5)c([N+](=O)[O-])c4)c(Oc4cnc5[nH]ccc5c4)c3)CC2)=C(c2ccc(Cl)cc2)C1 [Venetoclax] + CCN(CCO)CCCOc1ccc2c(Nc3cc(CC(=O)Nc4cccc(F)c4)[nH]n3)ncnc2c1 [AZD2811] (first compound max 1 µM, 7x7, partner max 1 µM) | 0.205 | 0.0108 | -0.011 | -0.0091 | 0.0431 | 0.0179 | -0.0215 | 0.0163 | -0.0795 | -0.0362 | 0.0005 | -0.0222 | 0.0079 | -0.0633 | -0.0372 | -0.0927 | -0.0372 | 0.0108 | 0.0056 | 0.0194
3 | C[C@@H]1COCCN1c1cc(C2([S@](C)(=N)=O)CC2)nc(-c2ccnc3[nH]ccc23)n1 [AZD6738] + O=C(c1cc(Cc2n[nH]c(=O)c3ccccc23)ccc1F)N1CCN(C(=O)C2CC2)CC1 [Olaparib] (first compound max 10 µM, 7x7, partner max 10 µM) | 0.764 | -0.0692 | -0.0469 | -0.125 | 0.0604 | 0.045 | 0.0066 | -0.0182 | -0.0317 | -0.016 | 0.0141 | 0.0092 | -0.042 | -0.15 | -0.0039 | -0.0735 | 0.0171 | 0.0073 | -0.0461 | -0.0177
4 | CC1(C)CCC(CN2CCN(c3ccc(C(=O)NS(=O)(=O)c4ccc(NCC5CCOCC5)c([N+](=O)[O-])c4)c(Oc4cnc5[nH]ccc5c4)c3)CC2)=C(c2ccc(Cl)cc2)C1 [Venetoclax] + C[C@@H](Nc1cc(F)cc(F)c1)c1cc(C(=O)N(C)C)cc2c(=O)cc(N3CCOCC3)oc12 [AZD8186] (first compound max 1 µM, 7x7, partner max 3 µM) | 0.0292 | -0.0245 | 0.0136 | -0.0109 | -0.0044 | -0.221 | -0.0457 | -0.0264 | -0.0654 | -0.0513 | -0.0099 | -0.0412 | -0.0104 | -0.0327 | -0.0487 | -0.0887 | -0.0516 | 0.103 | 0.0042 | -0.01
5 | CC(=O)Nc1cccc(-n2c(=O)n(C3CC3)c(=O)c3c(Nc4ccc(I)cc4F)n(C)c(=O)c(C)c32)c1 [Trametinib] + Cc1nc(-c2cn3c(n2)-c2ccc(-c4cnn(C(C)(C)C(N)=O)c4)cc2OCC3)n(C(C)C)n1 [Taselisib] (first compound max 1 µM, 7x7, partner max 10 µM) | 0.674 | -0.0328 | 0.085 | 0.0567 | 0.132 | 0.0304 | 0.11 | 0.045 | -0.0129 | 0.148 | -0.0544 | 0.0978 | 0.131 | -0.036 | 0.0113 | 0.0739 | 0.0925 | 0.232 | 0.127 | 0.0141
6 | COc1nnc2ccc(N3CCC(c4ccc(OCCN5CCN(C)C(=O)[C@H]5C)cc4)CC3)nn12 [AZD5153] + C=CCn1c(=O)c2cnc(Nc3ccc(N4CCN(C)CC4)cc3)nc2n1-c1cccc(C(C)(C)O)n1 [AZD1775] (first compound max 1 µM, partner max 1 µM) | 0.913 | 0.0076 | -0.0689 | -0.0316 | -0.0619 | -0.0206 | -0.0699 | -0.0565 | -0.0299 | -0.0019 | -0.026 | -0.0674 | -0.0453 | -0.107 | -0.0369 | -0.0831 | 0.0068 | -0.011 | -0.0357 | -0.0125
7 | CC1(C)CCC(CN2CCN(c3ccc(C(=O)NS(=O)(=O)c4ccc(NCC5CCOCC5)c([N+](=O)[O-])c4)c(Oc4cnc5[nH]ccc5c4)c3)CC2)=C(c2ccc(Cl)cc2)C1 [Venetoclax] + Cc1cc2ncnn2cc1Nc1ncc2c(n1)n(C1CCOCC1)c(=O)n2C [AZD7648] (first compound max 1 µM, 7x7, partner max 10 µM) | 0.205 | -0.0341 | 0.0025 | -0.0492 | -0.0572 | 0.0069 | -0.0515 | 0.0029 | -0.0634 | -0.0218 | -0.0469 | -0.0711 | -0.0241 | -0.0323 | -0.0756 | -0.102 | -0.0062 | 0.0489 | -0.0451 | -0.0699
